Patent US5393923A, “3,5-di-t-butyl-4-hydroxyphenylmethylhydroxylamines and their derivatives, pharmaceutical compositions, and methods of use therefor” (Warner-Lambert Company, priority 1993, dated 1995)
Structures can show the parent of a compound that is named as a salt. Where two headings read alike, the source gives them in different places.

Columns and labels:
5-lipoxygenase = target: T1, 5-lipoxygenase (Rattus norvegicus, UniProt P12527); test: ARBL whole cell 5-lipoxygenase assay (LTB4 formation, RBL-1 cells); assay type: cell-based
T1 construct: host or cells: RBL-1
T1 sequence (P12527 1-673): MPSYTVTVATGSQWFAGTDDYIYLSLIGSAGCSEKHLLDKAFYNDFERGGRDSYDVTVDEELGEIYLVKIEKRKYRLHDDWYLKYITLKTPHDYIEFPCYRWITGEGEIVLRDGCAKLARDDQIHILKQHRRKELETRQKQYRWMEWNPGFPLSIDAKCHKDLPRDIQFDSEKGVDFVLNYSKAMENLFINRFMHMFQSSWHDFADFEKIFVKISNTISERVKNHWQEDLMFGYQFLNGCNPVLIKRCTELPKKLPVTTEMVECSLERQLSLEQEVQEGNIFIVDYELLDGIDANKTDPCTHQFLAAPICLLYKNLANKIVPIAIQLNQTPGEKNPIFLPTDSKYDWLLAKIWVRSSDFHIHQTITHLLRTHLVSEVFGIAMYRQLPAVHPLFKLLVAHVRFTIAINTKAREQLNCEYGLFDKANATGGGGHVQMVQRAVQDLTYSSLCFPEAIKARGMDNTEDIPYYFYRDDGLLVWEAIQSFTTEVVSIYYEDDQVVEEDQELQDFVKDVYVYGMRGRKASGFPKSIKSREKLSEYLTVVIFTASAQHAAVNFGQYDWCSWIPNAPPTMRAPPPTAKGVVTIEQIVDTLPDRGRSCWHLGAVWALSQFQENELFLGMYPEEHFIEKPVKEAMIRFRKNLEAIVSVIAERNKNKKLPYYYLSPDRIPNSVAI
Description: (§1) ARBL/ARBC WHOLE CELL 5-LIPOXYGENASE AND CYCLOOXYGENASE ASSAYS The rat basophilic leukemia cell line (RBL-1) was obtained from the American Type Culture Collection (Rockville, Md.). Radioimmunoassay (RIA) kits of LTB4 and PGF2α were obtained from Amersham (Arlington Heights, Ill.) and Seragen (Boston, Mass.), respectively. RBL-1 cells are grown in suspension culture in Eagle's minimum essential medium supplemented with 12% fetal bovine serum at 37° C. in an incubator supplied with air-5% carbon dioxide. Cells are harvested by centrifugation. They are washed with cold phosphate-buffered saline, pH 7.4 (PBS; NaCl, 7.1 g; Na2 HPO4, 1.15 g; KH2 PO4, 0.2 g; and KCl, 0.2 g/L). Cells are finally suspended in PBS containing 1.0 mM calcium at a density of 2×10^6 cells/mL. Cells are incubated […] test agent (in DMSO) (1% DMSO is without effect on arachidonic acid metabolism) for 10 minutes at room temperature. Calcium ionophore A23187 (5 μM) is added and cells are incubated for 7 minutes at 37° C. The reaction is stopped by chilling the tubes on ice for 10 minutes. Cells are separated by centrifugation and the supernatant is stored at -20° C. Aliquots (100 μL) are analyzed for LTB4 and PGF2α using radioimmunoassay kits as provided by the supplier. Table 1 contains biochemical data for compounds of Formula I obtained from this whole cell assay as amount of inhibition at given μM or IC50 s which are calculated as the concentration of a test compound in micromoles (μM) causing 50% inhibition of LTB4 or PGF2αformation.

cyclooxygenase = target: T2, cyclooxygenase (Rattus norvegicus, UniProt Q63921); test: ARBC whole cell cyclooxygenase assay (PGF2α formation, RBL-1 cells); assay type: cell-based
T2 construct: host or cells: RBL-1
T2 sequence (Q63921 27-602): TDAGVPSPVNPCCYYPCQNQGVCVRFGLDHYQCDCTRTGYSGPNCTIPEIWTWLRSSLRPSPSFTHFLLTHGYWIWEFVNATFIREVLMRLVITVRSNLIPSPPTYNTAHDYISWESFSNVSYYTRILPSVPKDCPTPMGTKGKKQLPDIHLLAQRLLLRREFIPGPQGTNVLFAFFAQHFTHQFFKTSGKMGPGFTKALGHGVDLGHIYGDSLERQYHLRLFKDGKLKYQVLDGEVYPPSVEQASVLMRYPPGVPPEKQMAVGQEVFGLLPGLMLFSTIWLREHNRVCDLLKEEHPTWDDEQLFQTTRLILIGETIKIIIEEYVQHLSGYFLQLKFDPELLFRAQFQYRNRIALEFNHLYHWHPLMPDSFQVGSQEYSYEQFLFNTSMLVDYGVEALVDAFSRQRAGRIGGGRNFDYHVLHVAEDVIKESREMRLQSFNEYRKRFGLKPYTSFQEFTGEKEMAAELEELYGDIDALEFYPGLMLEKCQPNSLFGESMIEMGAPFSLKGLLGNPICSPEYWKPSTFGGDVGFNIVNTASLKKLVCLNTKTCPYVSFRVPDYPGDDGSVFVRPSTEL
Description: as §1

[1] = tested on: carrageenan-induced rat foot paw edema; test: Carrageenan-induced rat foot paw edema-2 (CFE-2) assay; assay type: in vivo; conditions: dosed 1 hour before carrageenan, edema measured 5 hours after, read-out: CFE ID40
Description: CARRAGEENAN-INDUCED RAT FOOT PAW EDEMA-2 (CFE-2) ASSAY: PROTOCOL
Carrageenan solution (1% w/v) is prepared by dissolving 100 mg carrageenan (Marine Colloidal Div., Springfield, N.J.) in 10 mL of sterile saline (0.9%) solution (Travenol). The solution is vortexed for 30 to 45 minutes. Animals are dosed with compound 1 hour before carrageenan challenge. Foot paw edema is induced by injecting 0.10 mL of the 1% carrageenan subcutaneously into the plantar portion of the right hind paw of each rat under light anesthesia. Initial foot paw volume is measured immediately following carrageenan challenge using mercury plethysmography (Buxco Electronics). Edema is measured 5 hours after carrageenan. The difference between the 5-hour and the initial paw volume is expressed as delta edema. The delta edema for each test group of animals is used to calculate the percent inhibition of edema achieved by the compound at the test dose compared with the vehicle control group. The ID40 (the dose at which swelling is inhibited by 40%) is calculated by probit analysis for the dose at which 40% inhibition occurs.

[2] = A23187, read-out: ARBL inhibition of LTB4 at given concentration
[3] = A23187, class symbol, read-out: ARBC inhibition at given concentration (N)
[4] = A23187, class symbol, read-out: ARBL inhibition at given concentration (N)

SMILES: CONC(c1ccccc1)c1cc(C(C)(C)C)c(O)c(C(C)(C)C)c1 (stereo not shown) [Example 18, 2,6-Bis(1,1-dimethylethyl)-4-[(methoxyamino)phenylmethyl]phenol, monohydrochloride]
- inhibition at 10 µM (5-lipoxygenase; [2]): 93%
- inhibition at 10 µM (cyclooxygenase; [3]): < 40%

SMILES: CCOC(=O)N(O)C(c1ccccc1)c1cc(C(C)(C)C)c(O)c(C(C)(C)C)c1 (stereo not shown) [Example 23, N-[[3,5-Bis(1,1-dimethylethyl)-4-hydroxyphenyl]-phenylmethyl]hydroxycarbamic acid, ethyl ester]
- inhibition at 16 µM (5-lipoxygenase; [2]): 97%
- inhibition at 16 µM (cyclooxygenase; [3]): < 40%

SMILES: CNC(=S)N(O)C(c1ccccc1)c1cc(C(C)(C)C)c(O)c(C(C)(C)C)c1 (stereo not shown) [Example 26, N-[[3,5-Bis(1,1-dimethylethyl)-4-hydroxyphenyl]-phenylmethyl]-N-hydroxy-N'-methylthiourea]
- inhibition at 16 µM (5-lipoxygenase; [2]): 98%
- inhibition at 16 µM (cyclooxygenase; [3]): < 40%

SMILES: CNC(=O)N(O)C(c1ccccc1)c1cc(C(C)(C)C)c(O)c(C(C)(C)C)c1 (stereo not shown) [Example 25, N-[[3,5-Bis(1,1-dimethylethyl)-4-hydroxyphenyl]-phenylmethyl]-N-hydroxy-N'-methylurea]
- inhibition at 16 µM (5-lipoxygenase; [2]): 93%
- inhibition at 16 µM (cyclooxygenase; [3]): < 40%

SMILES: CN(O)C(c1ccccc1)c1cc(C(C)(C)C)c(O)c(C(C)(C)C)c1 (stereo not shown) [Example 19, 2,6-Bis(1,1-dimethylethyl)-4-[(hydroxymethylamino)phenylmethyl]phenol, monohydrochloride]
- IC50 (5-lipoxygenase; 50% inhibition of LTB4 formation): 1200 nM
- IC50 (cyclooxygenase; 50% inhibition of PGF2α formation): 4300 nM
- ED40 [1]: > 30 mg/kg

SMILES: CC(C)C(=O)ON(Cc1cc(C(C)(C)C)c(O)c(C(C)(C)C)c1)C(=O)C(C)C [Example 13, N-[[3,5-Bis(1,1-dimethylethyl)-4-hydroxyphenyl]-methyl]-2-methyl-N-[2-methyl-1-oxopropoxy]propanamide]
- inhibition at 16 µM (5-lipoxygenase; [2]): 49%
- inhibition at 16 µM (cyclooxygenase; [3]): < 40%

SMILES: CC(C)C(=O)N(O)C(C)c1cc(C(C)(C)C)c(O)c(C(C)(C)C)c1 (stereo not shown) [Example 4, N-[1-[3,5-Bis(1,1-dimethylethyl)-4-hydroxyphenyl]-ethyl]-N-hydroxy-2-methylpropanamide]
- inhibition at 16 µM (5-lipoxygenase; [2]): > 91%
- inhibition at 16 µM (cyclooxygenase; [3]): < 40%

SMILES: CCNC(=O)N(O)C(c1ccccc1)c1cc(C(C)(C)C)c(O)c(C(C)(C)C)c1 (stereo not shown) [Example 24, N-[[3,5-Bis(1,1-dimethylethyl)-4-hydroxyphenyl]-phenylmethyl]-N'-ethyl-N-hydroxyurea]
- inhibition at 16 µM (5-lipoxygenase; [2]): 99%
- inhibition at 16 µM (cyclooxygenase; [3]): < 40%

SMILES: CC(C)(C)c1cc(C(c2ccccc2)N(O)C(N)=O)cc(C(C)(C)C)c1O (stereo not shown) [Example 27, N-[[3,5-Bis(1,1-dimethylethyl)-4-hydroxyphenyl]-phenylmethyl]-N-hydroxyurea]
- inhibition at 10 µM (5-lipoxygenase; [2]): 97%
- inhibition at 10 µM (cyclooxygenase; [3]): < 40%

SMILES: CCOC(=O)N(O)C(C)c1cc(C(C)(C)C)c(O)c(C(C)(C)C)c1 (stereo not shown) [Example 6, [1-[3,5-Bis(1,1-dimethylethyl)-4-hydroxyphenyl]-ethyl]hydroxycarbamic acid, ethyl ester]
- inhibition at 16 µM (5-lipoxygenase; [2]): > 96%
- inhibition at 16 µM (cyclooxygenase; [3]): < 40%

SMILES: CNC(=S)N(O)C(C)c1cc(C(C)(C)C)c(O)c(C(C)(C)C)c1 (stereo not shown) [Example 7, N-[1-[3,5-Bis(1,1-dimethylethyl)-4-hydroxyphenyl]-ethyl]-N-hydroxy-N'-methylthiourea]
- inhibition at 16 µM (5-lipoxygenase; [4]): < 40%
- inhibition at 16 µM (cyclooxygenase; [3]): < 40%

SMILES: CC(=O)N(O)C(C)c1cc(C(C)(C)C)c(O)c(C(C)(C)C)c1 (stereo not shown) [Example 5, N-[1-[3,5-Bis(1,1-dimethylethyl)-4-hydroxyphenyl]-ethyl]-N-hydroxyacetamide]
- inhibition at 16 µM (5-lipoxygenase; [2]): > 90%
- inhibition at 16 µM (cyclooxygenase; [3]): < 40%

SMILES: CCNC(=O)N(O)C(C)c1cc(C(C)(C)C)c(O)c(C(C)(C)C)c1 (stereo not shown) [Example 9, N-[1-[3,5-Bis(1,1-dimethylethyl)-4-hydroxyphenyl]-ethyl]-N'-ethyl-N-hydroxyurea]
- inhibition at 16 µM (5-lipoxygenase; [2]): > 91%
- inhibition at 16 µM (cyclooxygenase; [3]): < 40%

SMILES: CC(C)C(=O)N(O)C(c1ccccc1)c1cc(C(C)(C)C)c(O)c(C(C)(C)C)c1 (stereo not shown) [Example 21, N-[[3,5-Bis(1,1-dimethylethyl)-4-hydroxyphenyl]-phenylmethyl]-N-hydroxy-2-methylpropanamide]
- ED40 [1]: 5.3 mg/kg

SMILES: CC(=O)ON(Cc1cc(C(C)(C)C)c(O)c(C(C)(C)C)c1)C(C)=O [Example 12, N-(Acetyloxy)-N-[[3,5-bis(1,1-dimethylethyl)-4-hydroxyphenyl]methyl]acetamide, 0.3 hydrate]
- inhibition at 16 µM (5-lipoxygenase; [2]): 95%
- inhibition at 16 µM (cyclooxygenase; [3]): < 40%

SMILES: CCOC(=O)NC(=S)N(O)C(C)c1cc(C(C)(C)C)c(O)c(C(C)(C)C)c1 (stereo not shown) [Example 11, [[[1-[3,5-Bis(1,1-dimethylethyl)-4-hydroxyphenyl]-ethyl]hydroxyamino]-thioxomethyl]carbamic acid, ethyl ester, acetate (10:3)]
- inhibition at 16 µM (5-lipoxygenase; [2]): 91%
- inhibition at 16 µM (cyclooxygenase; [3]): < 40%

SMILES: CC(C)C(=O)N(O)Cc1cc(C(C)(C)C)c(O)c(C(C)(C)C)c1 [Example 14, N-[[3,5-Bis(1,1-dimethylethyl)-4-hydroxyphenyl]-methyl]-N-hydroxy-2-methylpropanamide]
- inhibition at 16 µM (5-lipoxygenase; [2]): 95%
- inhibition at 16 µM (cyclooxygenase; [3]): < 40%

SMILES: CC(c1cc(C(C)(C)C)c(O)c(C(C)(C)C)c1)N(O)C(N)=O (stereo not shown) [Example 10, N-[1-[3,5-Bis(1,1-dimethylethyl)-4-hydroxylphenyl]-ethyl]-N-hydroxyurea]
- inhibition at 16 µM (5-lipoxygenase; [2]): 79%
- inhibition at 16 µM (cyclooxygenase; [3]): < 40%

SMILES: CNC(=O)N(O)C(C)c1cc(C(C)(C)C)c(O)c(C(C)(C)C)c1 (stereo not shown) [Example 8, N-[1-[3,5-Bis(1,1-dimethylethyl)-4-hydroxyphenyl]-ethyl]-N-hydroxy-N'-methylure]
- inhibition at 16 µM (5-lipoxygenase; [4]): < 40%
- inhibition at 16 µM (cyclooxygenase; A23187, read-out: ARBC inhibition of PGF2α at given concentration): 45%

SMILES: CC(=O)N(O)Cc1cc(C(C)(C)C)c(O)c(C(C)(C)C)c1 [Example 15]
- inhibition at 16 µM (5-lipoxygenase; [2]): 90%
- inhibition at 16 µM (cyclooxygenase; [3]): < 40%
